Laboratory results from US20170107207A1, “AMINOPYRAZOLONE DERIVATIVE” (DAIICHI SANKYO COMPANY, LIMITED, priority 2014, published 2017).

Assays:
[1] = tested on: human lymphoma cell line RAMOS cells; assay: Cell growth inhibition test using RAMOS cell, ATP assay (CellTiter-Glo); format: cell-based; settings: Homo sapiens, Ramos, 72 h, cultured 3 days, 50% growth inhibition concentration
Summary of the method: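 RAMOS cells seeded at 4000 cells/well with compound and cultured 3 days at 37° C, 5% CO2; viability by CellTiter-Glo luminescence. Growth rate T/C % = 100×[(B−C)/(A−C)] using day-0 and final readings; GI50 interpolated from the two concentrations bracketing 50% growth.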

[2] = target: T1, TIP48/TIP49 complex (Homo sapiens, UniProt Q9Y230+Q9Y265); assay: ATPase assay of TIP48/TIP49 complex (ADP-Glo); format: biochemical; settings: concentration at which the ATPase activity was inhibited by 50%
T1 construct: made in house; host or cells: E. coli
Summary of the method: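 Compound was tested over 10 four-fold concentrations, 200 μM down to 0.0007 μM at 2% DMSO, against E. coli-derived human rTIP48/rTIP49 for 1.5 h at room temperature, pH 7.5 with ATP. ATP hydrolysis was read as ADP-Glo luminescence, normalised to complex-only and no-complex wells, then fitted to dose-response curves.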

[3] = tested on: human lymphoma cell line RAMOS cells; assay: Cell growth inhibition test using RAMOS cell, MTT assay; format: cell-based; settings: 50% growth inhibition concentration
Summary of the method: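 Cells in RPMI1640 with 10% FBS were exposed to compound (DMSO ≤1%) for 3 days at 37° C, 5% CO2. Viability was read by MTT (4 h, formazan in DMSO, OD 540/660 nm) against a day-0 plate; GI50 was interpolated from T/C % growth rates.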

T1 sequence (Q9Y230 whole entry): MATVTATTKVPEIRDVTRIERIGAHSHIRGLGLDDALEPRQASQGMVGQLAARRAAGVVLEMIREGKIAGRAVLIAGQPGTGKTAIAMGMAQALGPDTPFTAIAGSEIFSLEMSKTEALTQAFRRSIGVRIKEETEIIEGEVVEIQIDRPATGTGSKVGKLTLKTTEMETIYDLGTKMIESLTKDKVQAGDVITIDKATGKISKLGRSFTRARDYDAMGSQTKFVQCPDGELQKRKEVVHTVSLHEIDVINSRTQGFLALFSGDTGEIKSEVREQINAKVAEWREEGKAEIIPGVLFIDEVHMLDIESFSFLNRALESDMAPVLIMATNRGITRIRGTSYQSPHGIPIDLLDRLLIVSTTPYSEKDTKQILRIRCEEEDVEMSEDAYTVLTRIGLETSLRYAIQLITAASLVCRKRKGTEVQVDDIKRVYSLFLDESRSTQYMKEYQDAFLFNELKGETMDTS
T1 sequence (Q9Y265 whole entry): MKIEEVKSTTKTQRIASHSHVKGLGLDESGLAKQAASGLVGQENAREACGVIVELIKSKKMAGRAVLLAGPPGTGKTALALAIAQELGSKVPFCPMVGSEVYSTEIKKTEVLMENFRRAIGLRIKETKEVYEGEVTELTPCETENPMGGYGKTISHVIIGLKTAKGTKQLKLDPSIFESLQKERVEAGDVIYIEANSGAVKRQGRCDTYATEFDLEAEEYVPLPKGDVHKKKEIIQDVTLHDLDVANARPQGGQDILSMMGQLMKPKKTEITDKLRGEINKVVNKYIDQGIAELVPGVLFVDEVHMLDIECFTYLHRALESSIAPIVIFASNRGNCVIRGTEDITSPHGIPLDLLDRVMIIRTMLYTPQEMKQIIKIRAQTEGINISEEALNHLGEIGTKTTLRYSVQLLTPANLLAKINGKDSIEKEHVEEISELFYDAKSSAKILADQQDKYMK

## CCOc1ccc(Cl)cc1C(=O)NCC(C)(C)CC(=O)Nc1c(CCN(C)C)n(C)n(-c2ccccc2)c1=O [Example 11, 5-Chloro-N-[4-({5-[2-(dimethylamino)ethyl]-1-methyl-3-oxo-2-phenyl-2,3-dihydro-1H-pyrazol-4-yl}amino)-2,2-dimethyl-4-oxobutyl]-2-ethoxybenzamide]
[1]
  GI50: 0.15 µM
[2]
  IC50: 0.053 µM
[3]
  GI50: 0.053 µM

## CCOc1cc(F)c(Cl)cc1C(=O)NCC(C)(C)CC(=O)Nc1c(CCN(C)C)n(C)n(-c2ccccc2)c1=O [Example 12, 5-Chloro-N-[4-({5-[2-(dimethylamino)ethyl]-1-methyl-3-oxo-2-phenyl-2,3-dihydro-1H-pyrazol-4-yl}amino)-2,2-dimethyl-4-oxobutyl]-2-ethoxy-4-fluorobenzamide]
[1]
  GI50: 0.14 µM
[2]
  IC50: 0.062 µM
[3]
  GI50: 0.035 µM

## CCOc1ncc(Cl)cc1C(=O)NCC(C)(C)CC(=O)Nc1c(CCN(C)C)n(C)n(-c2ccccc2)c1=O [Example 13, 5-Chloro-N-[4-({5-[2-(dimethylamino)ethyl]-1-methyl-3-oxo-2-phenyl-2,3-dihydro-1H-pyrazol-4-yl}amino)-2,2-dimethyl-4-oxobutyl]-2-ethoxypyridine-3-carboxamide]
[1]
  GI50: 0.61 µM
[2]
  IC50: 0.082 µM
[3]
  GI50: 0.11 µM

## Cc1cc2cc(Cl)cc(C(=O)NCC(C)(C)CC(=O)Nc3c(CCN(C)C)n(C)n(-c4ccccc4)c3=O)c2o1 [Example 14, 5-Chloro-N-[4-({5-[2-(dimethylamino)ethyl]-1-methyl-3-oxo-2-phenyl-2,3-dihydro-1H-pyrazol-4-yl}amino)-2,2-dimethyl-4-oxobutyl]-2-methylbenzofuran-7-carboxamide]
[1]
  GI50: 0.13 µM
[2]
  IC50: 0.041 µM
[3]
  GI50: 0.032 µM

## CCOc1ccc(Cl)cc1C(=O)NCC(C)(C)CC(=O)Nc1c(CCN(C)CC(F)(F)F)n(C)n(-c2ccccc2)c1=O [Example 39, 5-Chloro-N-{2,2-dimethyl-4-[(1-methyl-5-{2-[methyl(2,2,2-trifluoroethyl)amino]ethyl}-3-oxo-2-phenyl-2,3-dihydro-1H-pyrazol-4-yl)amino]-4-oxobutyl}-2-ethoxybenzamide]
[1]
  GI50: 0.24 µM
[2]
  IC50: 0.082 µM
[3]
  GI50: 0.099 µM

## CCOc1ccc(Cl)cc1C(=O)NCC(C)(C)CC(=O)Nc1c(CCN(C)C)n(CC)n(-c2ccccc2)c1=O [Example 40, 5-Chloro-N-[4-({5-[2-(dimethylamino)ethyl]-1-ethyl-3-oxo-2-phenyl-2,3-dihydro-1H-pyrazol-4-yl}amino)-2,2-dimethyl-4-oxobutyl]-2-ethoxybenzamide]
[1]
  GI50: 0.12 µM
[2]
  IC50: 0.033 µM
[3]
  GI50: 0.027 µM

## CCOc1ccc(Cl)cc1C(=O)NCC(C)(C)CC(=O)Nc1c(COC)n(C)n(-c2ccccc2)c1=O [Example 114, 5-Chloro-2-ethoxy-N-(4-{[5-(methoxymethyl)-1-methyl-3-oxo-2-phenyl-2,3-dihydro-1H-pyrazol-4-yl]amino}-2,2-dimethyl-4-oxobutyl)benzamide]
[1]
  GI50: 0.14 µM
[2]
  IC50: 0.031 µM
[3]
  GI50: 0.042 µM

## CCOc1ncc(Cl)cc1NC(=O)CC(C)(C)CC(=O)Nc1c(COC)n(C)n(-c2ccccc2)c1=O [Example 118, N-(5-Chloro-2-ethoxy-3-pyridine)-N′-[5-(methoxymethyl)-1-methyl-3-oxo-2-phenyl-2,3-dihydro-1H-pyrazol-4-yl]-3,3-dimethylpentanediamide]
[1]
  GI50: 0.64 µM
[2]
  IC50: 0.065 µM
[3]
  GI50: 0.23 µM

## Cc1cccc(-n2c(=O)c(NC(=O)CC(C)(C)CNC(=O)c3cc(Cl)cc4cc(C)oc34)c(C)n2C)n1 [Example 155, 5-Chloro-N-(4-{[1,5-dimethyl-2-(6-methyl-2-pyridyl)-3-oxopyrazol-4-yl]amino}-2,2-dimethyl-4-oxobutyl)-2-methylbenzofuran-7-carboxamide]
[1]
  GI50: 0.19 µM
[2]
  IC50: 0.059 µM
[3]
  GI50: 0.059 µM

## CCOc1ccc(Cl)cc1C(=O)NCC(C)(C)CC(=O)Nc1c(C)n(C(C)C)n(-c2ccccn2)c1=O [Example 156, 5-Chloro-2-ethoxy-N-(4-{[1-isopropyl-5-methyl-3-oxo-2-(2-pyridyl)pyrazol-4-yl]amino}-2,2-dimethyl-4-oxobutyl)benzamide]
[2]
  IC50: 0.048 µM
[3]
  GI50: 0.1 µM

## CCOc1ccc(Cl)cc1C(=O)NCC(C)(C)CC(=O)Nc1c(C)n(C)n(-c2cc(OC)ccn2)c1=O [Example 157, 5-Chloro-2-ethoxy-N-(4-{[1-(4-methoxy-2-pyridyl)-2,3-dimethyl-5-oxopyrazol-4-yl]amino}-2,2-dimethyl-4-oxobutyl)benzamide]
[1]
  GI50: 0.43 µM
[2]
  IC50: 0.14 µM
[3]
  GI50: 0.12 µM

## COc1ccc(Cl)cc1NC(=O)CC(C)(C)CC(=O)Nc1c(C)n(C)n(C2CCCCC2)c1=O [Example 160, N-(5-Chloro-2-methoxyphenyl)-N′-(1-cyclohexyl-2,3-dimethyl-5-oxopyrazol-4-yl)-3,3-dimethylpentanediamide]
[2]
  IC50: 0.2 µM
[3]
  GI50: 0.99 µM
